PubChem BioAssay AID256 (DTP/NCI, 2004)
Inconclusive results and toxic doses are left out. Rule for the calls: active = survival T/C of 150% or more; inactive = T/C below 125% in these data.

Test system: CD2F1 mice, L1210 leukemia ip, survival T/C
Test: NCI In Vivo Anticancer Drug Screen. Data for tumor model L1210 Leukemia (intraperitoneal) in CD2F1 (CDF1) mice
Conditions: endpoint: mean survival time, higher = longer survival
Summary of the method: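 Implant tumor; dose compound or vehicle; measure endpoint in both groups; report treated divided by control.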

[1] = dose: 100.0 mg/kg/injection, schedule: Q01DX001 (ip), vehicle: saline with Tween-80
[2] = dose: 200.0 mg/kg/injection, schedule: Q01DX001 (ip), vehicle: saline with Tween-80
[3] = dose: 400.0 mg/kg/injection, schedule: Q01DX001 (ip), vehicle: saline with Tween-80

Measured: T/C

O=NO.O=NO.[NH-]C1CCCCC1[NH-].[Pd+2] (stereo not given)
inactive: dose: 3.13 mg/kg/injection, schedule: Q04DX003 (ip), vehicle: dextrose 92 % of control | dose: 6.25 mg/kg/injection, schedule: Q04DX003 (ip), vehicle: dextrose 93 % of control | dose: 12.5 mg/kg/injection, schedule: Q01DX001 (ip), vehicle: dextrose 95 % of control | dose: 12.5 mg/kg/injection, schedule: Q04DX003 (ip), vehicle: dextrose 98 % of control | dose: 25.0 mg/kg/injection, schedule: Q01DX001 (ip), vehicle: dextrose 94 % of control | dose: 50.0 mg/kg/injection, schedule: Q01DX001 (ip), vehicle: dextrose 91 % of control | dose: 50.0 mg/kg/injection, schedule: Q04DX003 (ip), vehicle: dextrose 95 % of control | dose: 100.0 mg/kg/injection, schedule: Q01DX001 (ip), vehicle: dextrose 109 % of control | dose: 100.0 mg/kg/injection, schedule: Q04DX003 (ip), vehicle: dextrose 100 % of control

CC(=O)NCc1ccc2c(c1)OCO2
inactive: [1] 98 % of control | [2] 111 % of control | [3] 106 % of control

Cc1cc(C)c([S-])c(C)c1.[Cu+]
inactive: dose: 4.7 mg/kg/injection, schedule: Q04DX003 (ip), vehicle: saline 94 % of control | dose: 9.4 mg/kg/injection, schedule: Q04DX003 (ip), vehicle: saline 94 % of control

CCCCCCCCCCCCCCCC(=O)Nc1ccccc1CC
inactive: dose: 100.0 mg/kg/injection, schedule: Q04DX002 (ip), vehicle: saline with Tween-80 91 % of control | dose: 200.0 mg/kg/injection, schedule: Q04DX002 (ip), vehicle: saline with Tween-80 95 % of control | dose: 400.0 mg/kg/injection, schedule: Q04DX002 (ip), vehicle: saline with Tween-80 103 % of control

Cc1ccccc1Nc1cc(=O)[nH]c(=O)[nH]1
inactive: [1] 95 % of control | [2] 95 % of control | [3] 94 % of control
